Results published in patent US6063612A, “Antiviral reagents based on RNA-binding proteins” (priority 1991, dated 2000).

Legend:
HIV-1 TAR RNA = assay: RNA cleavage reaction, HIV-1 TAR substrate; type: biochemical; details: 40 μM, not bound to RNA-binding protein (control)
Experimental: The above described polypeptides were tested for their ability to cleave RNA substrates which contained cognate binding sites. Typically, RNA target molecules containing the binding sites were 5'-end-labeled, purified on denaturing polyacrylamide gels, and annealed for use as substrates for cleavage (Example 2). A typical cleavage reaction contained 10^3 cpm of end-labeled RNA and 40-100 ng of polypeptide. Example 4A describes RNA cleavage reactions utilizing the TAT24C-phen polypeptide. The target RNA was incubated with TAT24C-phen at 25° C. for 10 min before the cleavage was initiated by adding CuSO4 and mercaptopropionic acid. After incubating for a given period of time, the reaction was stopped by the addition of 2,9-dimethyl-1,10-phenanthroline. RNAs were then isolated and analyzed on denaturing 15% sequencing gels. […] This is an expected site of cleavage based on binding of the polypeptide at the three-nucleotide bulge. A possible secondary cleavage site may be due to flexibility of the phenothroline-containing protein of the polypeptide, allowing it to reach to stem on the other side of the binding site.
Cleavage reactions using the polypeptide-cleaving reagents of the present invention were typically performed as follows. […]
RNAs from all reactions were ethanol precipitated and analyzed on a denaturing (8.3 M urea) 15% polyacrylamide gel. […]

[1] = system: wild-type TAR (wt-TAR) site; details: RNA containing the TAR site; cited from earlier work
[2] = system: HIV-1 LTR-linked gene expression; details: TAT protein taken up by cells; cited from earlier work

Cu(II)-1,10-phenanthroline
cleavage pattern on HIV-1 TAR by free Cu(II)-phenanthroline (HIV-1 TAR RNA): cleaves everywhere, but the unpaired bases at the loop (especially G32) and the bulge are most reactive

synthetic 14-residue polypeptide: synthetic polypeptide spanning the basic region, amino acid residues 48-61 of the TAT protein (GRKKRRQRRRAHQN; UniProt P04608 48-61, looked up, fragment)
binding to TAR-RNA (in words) [1]: bound TAR-RNA as well

B1: TAT protein: HIV-1 encoded 86 amino acid transactivator protein (protein)
chain: MEPVDPRLEPWKHPGSQPKTACTNCYCKKCCFHCQVCFITKALGISYGRKKRRQRRRPPQGSQTHQVSLSKQPTSQSRGDPTGPKE
effect on HIV-1 LTR-linked gene expression [2]: specifically activates HIV-1 LTR-linked gene expression
